# Assays:
# Conditions in all cases: stereoisomer not certain
# [1] = RP, Merck Supelco Ascentis Express C18, 100 × 2.1 mm, 2 µm, 39 °C, 0.3 mL/min, estimated dead time 0.73 min; A: water + 0.1% formic acid, pH 3; B: acetonitrile + 0.1% formic acid, pH 3; gradient (min/%B) 0/5 2/5 17/99.9 20/99.9
# [2] = RP, Merck Supelco Ascentis Express C18, 100 × 2.1 mm, 2 µm, 40 °C, 0.25 mL/min, estimated dead time 0.88 min; A: water + 0.1% formic acid, pH 3; B: acetonitrile + 0.1% formic acid, pH 3; gradient (min/%B) 0/5 2/5 17/99.9 20/99.9
# [3] = RP, Merck Supelco Ascentis Express C18, 100 × 2.1 mm, 2 µm, 40 °C, 0.4 mL/min, estimated dead time 0.55 min; A: water + 0.1% formic acid, pH 3; B: acetonitrile + 0.1% formic acid, pH 3; gradient (min/%B) 0/5 2/5 17/99.9 20/99.9
# [4] = RP, Merck Supelco Ascentis Express C18, 100 × 2.1 mm, 2 µm, 40 °C, 0.2 mL/min, estimated dead time 1.1 min; A: water + 0.1% formic acid, pH 3; B: acetonitrile + 0.1% formic acid, pH 3; gradient (min/%B) 0/5 2/5 17/99.9 20/99.9
# [5] = as above; remark: listed apart in the source
SMILES,LC retention time [1] [min],LC retention time [2] [min],LC retention time [3] [min],LC retention time [4] [min],LC retention time [5] [min]
Cn1cnc2c1c(=O)[nH]c(=O)n2C [THEOBROMINE],1.78,2.12,1.4,2.69,
Oc1ccc(O)cc1 [HYDROQUINONE],,,,,4.63
CNCCc1c[nH]c2ccccc12 [N-METHYLTRYPTAMINE],3.89,4.33,3.32,4.88,
O=CCc1ccccc1 [PHENYLACETALDEHYDE],,,1.09,,
Cc1ccc(O)c(O)c1 [4-METHYLCATECHOL],1.62,1.97,1.24,2.48,
O=C(O)C=C(CC(=O)O)C(=O)O [TRANS-ACONITATE],0.887,,,,
O=C([O-])c1c[nH]c(=O)[nH]c1=O [URACIL 5-CARBOXYLATE],,1.07,,1.39,1.36
CCOC(=O)Cc1c[nH]c2ccccc12 [ETHYL 3-INDOLEACETATE],9.1,9.59,8.46,10.2,
O=C(O)C=CC(=O)O [MALEATE],,,0.693,,
O=C(O)C(=O)Cc1ccccc1 [PHENYLPYRUVATE],4.98,,,,
CC(C)=CCCC(C)=CCCC(C)=CCCC=C(C)CCC=C(C)CCC=C(C)C [SQUALENE],14,14.8,13.6,15.6,
Nc1ncnc2c1ncn2C1OC(CO)C(O)C1O (stereo unspecified) [ADENOSINE],,,,1.33,1.35
CC(C)CCCC(C)C1CCC2C3=CC=C4CC(O)CCC4(C)C3CCC21C (stereo unspecified) [7-DEHYDROCHOLESTEROL],15.1,10.8,9.92,11.4,
O=C1CCCCO1 [5-VALEROLACTONE],2.73,3.24,2.06,3.96,
NC(Cc1ccc(O)cc1)C(=O)O (stereo unspecified) [TYROSINE],,,,1.33,
NCCc1cc(O)c(O)cc1O [6-HYDROXYDOPAMINE],,,0.893,,

SMILES,LC retention time [1] [min],LC retention time [2] [min],LC retention time [3] [min],LC retention time [4] [min],LC retention time [5] [min]
O=C(O)C(O)C(O)C(O)C(O)COP(=O)(O)O (stereo unspecified) [6-PHOSPHOGLUCONATE],,,,1.32,
CC1(O)CCOC(=O)C1 (stereo unspecified) [MEVALOLACTONE],,1.46,0.903,1.84,
NCC(O)c1ccc(O)c(O)c1 (stereo unspecified) [NORADRENALINE],,,1.07,,
NCCc1ccccc1 [PHENETHYLAMINE],,1.54,0.963,,
O=C(O)C(O)COP(=O)(O)O (stereo unspecified) [3-PHOSPHOGLYCERATE],,,0.663,1.39,
O=C1CCC(C(=O)O)N1 (stereo unspecified) [OXOPROLINE],,,,1.34,1.32
Nc1nc2nccnc2c(=O)[nH]1 [PTERIN],,,,1.33,1.33
Nc1cc(O)cc(C(=O)O)c1 [3-AMINO-5-HYDROXYBENZOATE],,,,1.32,
Nc1nc2c(ncn2C2OC3COP(=O)(O)OC3C2O)c(=O)[nH]1 (stereo unspecified) [CYCLIC GMP],,,,1.34,1.33
NC(Cc1c[nH]c2ccccc12)C(=O)O (stereo unspecified) [TRYPTOPHAN],2.72,,,,
O=C([O-])c1ccccn1 [PICOLINATE],,,,,1.37
O=C(O)CCC(=O)C(=O)O [OXOGLUTARATE],,,,,1.41
Nc1ccccc1O [2-AMINOPHENOL],,,,1.34,
c1ccc2ncccc2c1 [QUINOLINE],,9,2.49,10.2,
O=C(O)CCCC(=O)O [GLUTARATE],1.34,,,,
"Nc1ncnc2c1ncn2C1OC(CO)C2OP(=O)(O)OC21 (stereo unspecified) [ADENOSINE 2',3'-CYCLIC PHOSPHATE]",,,,1.34,1.32

# — the RepoRT retention time repository (doi:10.1007/s00216-021-03828-0)
